Columns and labels:
[1] = test system: AMPA and NMDA receptors; details: reported in the art; cited from earlier work
[2] = test system: neurons; assay: whole-cell patch clamp, membrane potential; assay type: cell-based, mice; details: low concentrations (preferably less than 1 μM, more preferably 0.5 μM Aβ)
[3] = test system: plasma membrane of hippocampal neurons; assay: cell-attached to perforated patch-clamp recording with the agent in the glass pipette; assay type: cell-based, mice
Method: In absence of Aβ or gramicidin, cell attached recordings are stable for more than 60 min.
Control is the charge in cell-attached configuration and reflects the recording of the glass pipette properties partially compensated to visualize part of the transient. Negative pressure reflects the charge obtained with a routine whole-cell configuration. Gramicidin and amphotericin are antibiotics routinely used to generate perforates. Data are ±S.E. average (n=6; different experiments).
The experimental evidence of the invention allows establishing that conductance changes may be the result of the forming of a cationic-type pore, very similar to that generating gramicidin. […] Basically, this invention procedure is formed by two stages: • b) Exposing a small area or patch of plasma membrane, in a preferable embodiment said membranes are neuron membranes, to peptide aggregates under study and/or to active ingredients, and/or compounds of interest. • c) Determining, measuring, and quantifying electric parameters of membranes exposed to these aggregates; in a preferable embodiment, the parameter is conductance (inverse of electrical resistance resulting from resistance range and the glass pipette potential).
The method described in this invention uses a variation of the technique known as patch cell-attached to study the Aβ peptide effects. In this invention embodiment, records very stable in time are obtained and maintained for more than 5 minutes, preferably for more than 15 minutes, and more preferably for more than 30 minutes. At the same time, this embodiment provides an intrinsic noise level under 5 pA, preferably under 3 pA, and more preferably under 1 pA, which may be due to the registry being obtained from a small cell area that normally contains very few ionic channels. […] However, the most important characteristics in this event is the evidence of the fast capacitative resistance component, which reflects formation of a perforated form that supports the conclusion that pores are generated in the membrane (see FIGS. 1 and 2).
Animals are treated and handled according to the NIH recommendations. 18-day pregnant mice (C57BL7J6) are anesthetized with ether and sacrificed through cervical dislocation. Embryo are quickly removed and beheaded with sterile material. Brains are removed and kept in cold Hank medium.
The midbrain is separated in order to expose the hippocampus area, which is dissected from the brain and mechanically dispersed using trypsin, collagenase, and DNAsa III. Neurons are placed (“planted”) in 35 mm dishes covered with poly-L-lisine at a density of 350000 neurons per ml.
Neurons are left to grow in vitro during 12 days, and then recorded using electro-physiology. The means of culture is 80% MEM, 2 mM glutamine, and 10% bovine fetal serum. The means are changed every three days. Every reagent used is dissolved in PBS, which is used as control.
Peptide aggregates are diluted to working concentration and were made at concentrations from 0.01 μM to 50 μM, preferably between 0.03 and 20, more preferably 0.05 and 10 μM. This aggregate is diluted in an internal solution (called so because it artificially imitates intra-cell fluid) mainly formed by KCl, BAPTA, calcium, and ATP, as previously described. The aggregate is diluted in this solution, which is loaded into the pipette to be used for Patch-Clamp. This solution is taken into a tuberculin syringe, from which the needle has been removed, and a small capillary-HPLC is added. With this modified syringe, the internal solution volume is taken with no Aβ aggregates as control. It may also be used with the aggregate and/or other molecules of biologic interest in the event evaluations and determining the said molecules' pharmacologic activities is required.
Using the capillary-HPLC in the syringe, the internal solution is introduced into the glass pipette, slowly removing it as the pipette becomes full in order to reduce bubbles. […]

[4] = Aβ peptide aggregation in solution followed by turbidity (optical density); assay type: physicochemical; details: about 100 μM peptide in PBS pH 7.4, stirring about 600 rpm, about 37° C., after 120 minutes
Method: FIG. 2A is a graph indicating the Aβ peptide aggregation structure progress in solution. […] The solution absorbency measurement is observed as a change in optical densities (D.O.), which reflects formation of complex structures, amyloid aggregates. Images B-D correspond to ultra micro photographs obtained with an electronic microscope. The recognition of different structures formed during the aggregation process is possible. Aggregates obtained at 120 min and fibers obtained at 5 days of aggregation are readily noticed.
In order to generate the working solution, these portions are defrosted under a laminar flow bell and diluted in sterile PBS at pH 7.4. 700 μl PBS are added to the 25 μl of each peptide portion, obtaining a final work volume of 725 μl, with peptide at an approximate concentration of 100 μM. This peptide solution is defined as “Soluble Peptide” and it is mainly formed by Aβ peptide monomers. This soluble peptide is induced to aggregation by stirring at approximately 600 rpm at temperature around 37° C. During this process, the solution optical density is determined at 405 nm every 15 minutes for a total time of 120 minutes. […] This solution is called “Aggregate Peptide”, and electronic microscope inspection has determined that it corresponds to a heterogeneous structure population, among which amorphous aggregate shapes, 100 nm protofibril, and short fibers are noted.

## N#Cc1cc2[nH]c(=O)c(=O)[nH]c2cc1[N+](=O)[O-] [CNQX]
[1]
  inhibition of peptide effects on calcium levels: inhibited

## Aβ: Synthetic peptide Aβ1-40 (TOCRIS or Sigma), human sequence of β-amyloid peptide, aggregated by stirring at 37° C.
[2]
  changes in membrane potential: have not shown significant changes in membrane potential
[3]; 500 nM in the glass pipette solution, FIG. 1A
  conversion of the cell-attached recording into a perforated recording (increased capacitative peak and late conductance): spontaneously convert the recording into a perforated variation of the technique
[3]; FIG. 3, n=6
  charge transferred by the cellular membrane during a 10 mV pulse: form perforations in the membrane
[3]; in the presence of Aβ
  input current following the high-resistance seal formation: −40 to −70 pA
[3]; low-concentration peptide, few pores in the cell
  current range: ≤ 50 pA
[3]; measurements and recordings of the invention method
  membrane de-polarization: has not been detected
[4]
  solution optical density at 405 nm: 0.2-0.3

## gramicidin
[3]; 50 μM in the glass pipette, FIG. 1B
  development of perforation: typical perforation
